Measured values published in the supplement of paper PMC10307832.

Columns and labels:
Assay in all cases: relative viability (nuclei count vs DMSO), 5 days (fraction); higher = more cells survive
NCI-H2347 = tested on: NCI-H2347
How it was run: (§1)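 For relative viability, nuclei counts in treated wells were divided by those in vehicle wells. Lung cancer cell lines had been pin-tool dosed in 1536-well plates the day after seeding and cultured for 5 days, then fixed and stained in one step (final 0.05% Triton X-100, 1% formaldehyde, 1 ug/ml Hoechst) and imaged at 4×. Doses were one drug alone or a fixed anchor-drug dose plus five library-drug doses (not always all listed) in √10 steps, and values are duplicate-plate medians.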

HCC-366 = tested on: HCC-366
How it was run: as §1

NCI-H2023 = tested on: NCI-H2023
How it was run: as §1

NCI-H1944 = tested on: NCI-H1944
How it was run: as §1

NCI-H1355 = tested on: NCI-H1355
How it was run: as §1

PC-14 = tested on: PC-14
How it was run: as §1

SW 1573 = tested on: SW 1573
How it was run: as §1

NCI-H2009 = tested on: NCI-H2009
How it was run: as §1

NCI-H2405 = tested on: NCI-H2405
How it was run: as §1

NCI-H1734 = tested on: NCI-H1734
How it was run: as §1

HCC-44 = tested on: HCC-44
How it was run: as §1

With Cc1csc(=NC2CCCCC2)n1/N=C/c1ccc(O)c(O)c1O [MIM1] + CC(=O)c1c(C)c2cnc(Nc3ccc(N4CCNCC4)cn3)nc2n(C2CCCC2)c1=O [Palbociclib] (partner 0.5 µM) the relative viability (NCI-H2347; first compound 0.2 µM) was 0.408, the relative viability (NCI-H2347; first compound 0.6325 µM) was 0.404 and the relative viability (NCI-H2347; first compound 2 µM) was 0.446. The relative viability (NCI-H2347; first compound 6.325 µM) was 0.42, the relative viability (NCI-H2347; first compound 20 µM) was 0.356 and the relative viability (HCC-366; first compound 0.2 µM) was 0.384. It also gave a relative viability (HCC-366; first compound 2 µM) of 0.236, a relative viability (HCC-366; first compound 6.325 µM) of 0.127 and a relative viability (HCC-366; first compound 20 µM) of 0.0225. It also gave a relative viability (NCI-H2023; first compound 0.2 µM) of 0.393, a relative viability (NCI-H2023; first compound 0.6325 µM) of 0.387 and a relative viability (NCI-H2023; first compound 2 µM) of 0.391. For the same compound, the relative viability (NCI-H2023; first compound 6.325 µM) was 0.194, the relative viability (NCI-H2023; first compound 20 µM) was 0.0614 and the relative viability (NCI-H1944; first compound 0.2 µM) was 0.369. It also gave a relative viability (NCI-H1944; first compound 0.6325 µM) of 0.314, a relative viability (NCI-H1944; first compound 2 µM) of 0.248 and a relative viability (NCI-H1944; first compound 6.325 µM) of 0.255. The relative viability (NCI-H1944; first compound 20 µM) was 0.186, the relative viability (NCI-H1355; first compound 0.2 µM) was 0.391 and the relative viability (NCI-H1355; first compound 0.6325 µM) was 0.371. For the same compound, the relative viability (NCI-H1355; first compound 2 µM) was 0.41, the relative viability (NCI-H1355; first compound 6.325 µM) was 0.385 and the relative viability (NCI-H1355; first compound 20 µM) was 0.288. It also gave a relative viability (PC-14; first compound 0.2 µM) of 0.475, a relative viability (PC-14; first compound 0.6325 µM) of 0.554 and a relative viability (PC-14; first compound 2 µM) of 0.464. It also gave a relative viability (PC-14; first compound 6.325 µM) of 0.454, a relative viability (PC-14; first compound 20 µM) of 0.145 and a relative viability (SW 1573; first compound 0.2 µM) of 0.412. It also gave a relative viability (SW 1573; first compound 0.6325 µM) of 0.501, a relative viability (SW 1573; first compound 2 µM) of 0.365 and a relative viability (SW 1573; first compound 6.325 µM) of 0.325. The relative viability (SW 1573; first compound 20 µM) was 0.148, the relative viability (NCI-H2009; first compound 0.2 µM) was 0.288 and the relative viability (NCI-H2009; first compound 0.6325 µM) was 0.266. For the same compound, the relative viability (NCI-H2009; first compound 2 µM) was 0.331, the relative viability (NCI-H2009; first compound 6.325 µM) was 0.167 and the relative viability (NCI-H2009; first compound 20 µM) was 0.122. For the same compound, the relative viability (NCI-H2405; first compound 0.2 µM) was 0.512, the relative viability (NCI-H2405; first compound 0.6325 µM) was 0.549 and the relative viability (NCI-H2405; first compound 2 µM) was 0.605. The relative viability (NCI-H2405; first compound 6.325 µM) was 0.383, the relative viability (NCI-H2405; first compound 20 µM) was 0.351 and the relative viability (NCI-H1734; first compound 0.2 µM) was 0.32. For the same compound, the relative viability (NCI-H1734; first compound 0.6325 µM) was 0.361, the relative viability (NCI-H1734; first compound 2 µM) was 0.34 and the relative viability (NCI-H1734; first compound 6.325 µM) was 0.322. The relative viability (NCI-H1734; first compound 20 µM) was 0.193, the relative viability (HCC-44; first compound 0.2 µM) was 0.902 and the relative viability (HCC-44; first compound 0.6325 µM) was 0.981. It also gave a relative viability (HCC-44; first compound 2 µM) of 0.94, a relative viability (HCC-44; first compound 6.325 µM) of 0.608 and a relative viability (HCC-44; first compound 20 µM) of 0.578.
